{"source": "paper PMC11790956", "about": "“A microscale thermophoresis-based enzymatic RNA methyltransferase assay enables the discovery of DNMT2 inhibitors” (Communications Chemistry, 2025)", "key": {"[1]": {"biological_target": "T1, DNMT2-tRNA complex (Homo sapiens, UniProt O14717)", "T1 construct": "made in house", "T1 sequence (O14717 1-391)": "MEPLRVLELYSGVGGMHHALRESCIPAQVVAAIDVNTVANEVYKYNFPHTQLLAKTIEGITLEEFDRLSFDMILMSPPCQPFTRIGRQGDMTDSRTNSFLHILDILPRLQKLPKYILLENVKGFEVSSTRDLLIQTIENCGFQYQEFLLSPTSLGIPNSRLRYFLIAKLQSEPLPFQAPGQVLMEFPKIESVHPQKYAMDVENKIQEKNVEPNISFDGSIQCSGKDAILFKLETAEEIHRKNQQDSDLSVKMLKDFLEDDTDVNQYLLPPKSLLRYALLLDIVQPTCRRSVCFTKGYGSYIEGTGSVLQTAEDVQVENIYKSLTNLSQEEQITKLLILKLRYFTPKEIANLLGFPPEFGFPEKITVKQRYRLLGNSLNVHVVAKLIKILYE", "assay": "Electrophoretic mobility shift assay (EMSA) of the DNMT2-tRNA complex", "assay_type": "binding", "settings": "500 µM compound, DNMT2 10 µM, tRNAAsp 5 µM", "description": "We speculated these hits might bind very weakly to the tRNA-DNMT2 interaction site and by this inhibit DNMT2 activity. To test this hypothesis, we performed an electrophoretic mobility shift assay (EMSA) using tRNA^Asp (5 µM) and DNMT2 (10 µM) compared to the tRNA sample in absence of the DNMT2 protein (SI Fig. 4)[33]. […] Subsequently, we treated the DNMT2-tRNA complex with all hit compounds at 500 µM and observed their potential to disrupt the complex.\nDNMT2 (10 µM) was mixed with tRNA^Asp (5 µM) and treated with 500 µM of the respective screening hit compound in DNMT2 assay buffer (100 mM Tris-HCl, pH 8, 100 mM NH4OAc, 0.1 mM EDTA, 10 mM MgCl2, 10 mM DTT). Subsequently, reaction samples (each 5 µL) were loaded to a native 10% polyacrylamide gel and separated electrophoretically (1 h, 180 V) in 1x TBE. RNA was stained in situ with 1x GelRed and PAGE analysis was conducted by fluorescence scanning at an excitation wavelength of 532 nm (Amersham Typhoon 9400). Positive control: DNMT2+tRNA (band at high molecular weights); negative control: only tRNA (band at low molecular weights).\nSI Figure 4. Electrophore?c mobility shi? assay (EMSA) to inves?gate the inﬂuence of screening hits on the DNMT2-tRNA complex forma?on. D NMT2 (10 µ M ) was mixe d w it h t RNAAsp (5 µM) and treated with 50 0 µM of the respec?ve screening hit compound in DNMT2 assay buﬀer. All reac?on samples (each 5 µL) were loaded to a na?ve 10% polyacr ylamide gel and separated electrophore?cally (1 h, 1 80 V) in 1x TBE. RNA was stained in situ with 1x GelRed and PAGE analysis was conducted by ﬂuorescence scanning at an excita?on wavelength of 532 nm (Amersham Typhoon 9400). Po s i ? ve control: DNMT2+tRNA (band at high molecular weights); nega?ve control: only tRNA (band at low"}, "[2]": {"biological_target": "T2, DNMT2 (Homo sapiens, UniProt O14717)", "T2 construct": "made in house", "T2 sequence (O14717 1-391)": "T1 sequence (O14717 1-391)", "assay": "DNMT2 enzymatic split aptamer MST assay", "assay_type": "biochemical", "experimental": "The enzyme kinetics were characterized by calculating the Michaelis-Menten constant (KM or kcat) and inhibitory constants (IC50 resp. KI).\nThe final drug compound concentration was adjusted to 500 µM for the epigenetic drug library (Fig. 5) resp. 100 µM for the covalent compound library (Fig. 6), and the enzymatic reaction was incubated for 30 min at 25 °C. Subsequently, enzymatic reactions were terminated by the addition of 0.3% SDS, and the product SAH was quantified by the split aptamer MST assay (Figs. 5A, B, 6A).\nFor MTase assay detection by MST, enzyme reaction mixtures with a total volume of 10 µL per single treatment condition were prepared and incubated for the desired reaction times. Inhibitors were added from corresponding DMSO stocks to a final DMSO concentration of max. 5%. Afterward, reactions were quenched at a given reaction time by the addition of 1 µL sodium dodecyl sulfate (SDS, solution, 3% in water) per 10 µL reaction mixture and mixed well by pipetting. Subsequently, 1 µL of a 10× aptamer-containing detection master mix (200 mM Tris, pH 8.5, 200 mM MgCl2, 3 M NaCl, 10 mM urea, 0.2% Brij, 500 nM aptaSAH1, 500 nM aptaSAH2) was added to the quenched MTase reaction and incubated for 1 h at room temperature. Reaction mixtures were loaded directly to MST capillaries without further purification or sample processing.\nMST experiments were carried out in at least technical triplicates using a Monolith NT.115 instrument (NanoTemper Technologies) using Monolith standard capillaries and the blue excitation laser setup. The instrument was calibrated according to the manufacturer’s instructions. General settings were applied for all MST experiments as follows: manual temperature control: 25 °C, fluorescence measurement before MST: 4 s, MST (IR laser) on: 20 s, fluorescence after MST: 2 s, delay: 25 s. The laser power was adjusted to optimize the signal-to-noise ratio and the fluorescence signal. LED and MST power settings were chosen individually for each sample by adjusting the LED power to yield fluorescence signals of at least 300 units (blue laser) or 3000 units (red laser) and the MST power to achieve an appropriate thermophoretic response (standard setting: medium MST power)."}, "[3]": {"biological_target": "T2, DNMT2", "assay": "DNMT2 fluorescence polarization (FP) FTAD displacement assay", "assay_type": "binding", "description": "Fluorescence polarization assays were conducted with a similar sample composition as described for FTAD-MST assays as described previously. Triplicates (50 µL) were prepared in black 96-well half-area plates (Greiner) and measured using a Spark 10 M plate reader (Tecan) equipped with polarization filters coupled to a monochromator setup (FTAD: λex = 480 nm, λem = 530 nm). Polarization values (in mP) were calculated from polarization-specific parallel and orthogonal fluorescence intensities according to the Tecan in-built calculation routine.\nReversibility of alexidine binding to DNMT2 was evaluated with a modified FP-assay setup. Briefly, reaction mixtures containing alexidine were prepared in black 96-well half-area plates, and after FP measurement, the volume of one well (50 µL) was collected and applied to a Zeba™ Spin Desalting Column (7 K MWCO) while 5 µL of a 10x DNMT2 buffer solution (500 mM HEPES, 1.5 M NaCl, 10 mM dithiothreitol (DTT), 1% PEG-8000, 0.5% polysorbate-20, pH 7.4) was placed in the collection tube attached to the SEC column. This procedure separated alexidine and restored the initial composition of the DNMT2 assay solution.\nKinetic FP assays were performed to assess the time-dependent inactivation of DNMT2 treated with covalent inhibitors. Briefly, samples contained 2 µM DNMT2, 100 nM FTAD probe, and 1.3% DMSO in DNMT2 MST buffer. Inhibitors were added from DMSO stocks. Negative inhibition control was performed by mock treatment with DMSO. Reactions were initiated by the addition of the Cpd 11 (adamantanyl-acryloylurea) and monitored for 120 min at 25 °C in a Tecan Spark 10 M plate reader (FTAD: λex = 480 nm, λem = 530 nm) The irreversible inhibition kinetics were analyzed as described previously[35],[36]."}, "[4]": {"biological_target": "T3, S. aureus TrmD (Staphylococcus aureus, UniProt Q2FZ43)", "T3 construct": "made in house", "T3 sequence (Q2FZ43 1-245)": "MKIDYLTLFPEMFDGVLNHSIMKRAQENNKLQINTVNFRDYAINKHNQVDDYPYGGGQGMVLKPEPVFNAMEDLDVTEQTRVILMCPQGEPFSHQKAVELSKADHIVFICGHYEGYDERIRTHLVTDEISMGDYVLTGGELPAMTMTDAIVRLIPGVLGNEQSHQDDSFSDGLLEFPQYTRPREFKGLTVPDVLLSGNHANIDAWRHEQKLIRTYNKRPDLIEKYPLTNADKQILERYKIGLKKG", "assay": "S. aureus TrmD enzymatic split aptamer MST assay", "assay_type": "biochemical", "settings": "500 µM of hit compound, Fig. 5D", "experimental": "DNMT2 & S. aureus TrmD: 100 mM Tris-HCl, pH 8, 100 mM NH4OAc, 0.1 mM EDTA, 10 mM MgCl2, 10 mM DTT. For TrmD: 50 nM TrmD, 2 µM SAM, 1 µM tRNA^Leu.\nFor MTase assay detection by MST, enzyme reaction mixtures with a total volume of 10 µL per single treatment condition were prepared and incubated for the desired reaction times. Inhibitors were added from corresponding DMSO stocks to a final DMSO concentration of max. 5%. Afterward, reactions were quenched at a given reaction time by the addition of 1 µL sodium dodecyl sulfate (SDS, solution, 3% in water) per 10 µL reaction mixture and mixed well by pipetting. Subsequently, 1 µL of a 10× aptamer-containing detection master mix (200 mM Tris, pH 8.5, 200 mM MgCl2, 3 M NaCl, 10 mM urea, 0.2% Brij, 500 nM aptaSAH1, 500 nM aptaSAH2) was added to the quenched MTase reaction and incubated for 1 h at room temperature. […]\nMST experiments were carried out in at least technical triplicates using a Monolith NT.115 instrument (NanoTemper Technologies) using Monolith standard capillaries and the blue excitation laser setup. […] General settings were applied for all MST experiments as follows: manual temperature control: 25 °C, fluorescence measurement before MST: 4 s, MST (IR laser) on: 20 s, fluorescence after MST: 2 s, delay: 25 s. The laser power was adjusted to optimize the signal-to-noise ratio and the fluorescence signal. […]"}}, "note": "“Also recorded” adds a separate entry of the source."}
{"molecule": "C=CC(=O)NC(=O)NC12CC3CC(CC(C3)C1)C2", "note": "[Cpd 11, 1-(adamantan-1-yl)-3-(prop-2-enoyl)urea]", "values": [{"measurement": "influence on DNMT2-tRNA complex formation", "setting": "[1]", "value": "do not inﬂuence the complex"}, {"measurement": "inhibition at 100 µM", "setting": "[2]; 100 µM compound, covalent library, 30 min at 25 °C, read-out: DNMT2 inhibition in primary screening", "value": "> 90", "unit": "%"}, {"measurement": "IC50", "setting": "[2]; MST-derived, 250 nM DNMT2, 5 µM tRNA, 0.9 µM SAM", "value": 4.1, "unit": "µM"}, {"measurement": "displacement of FTAD tracer / binding to SAH-binding site", "setting": "[3]; FP library screening with FTAD tracer", "value": "binding to the SAH-binding site; also recorded: displaced the FP-probe FTAD effectively"}, {"measurement": "time dependence of FTAD displacement", "setting": "[3]; kinetic FP assay", "value": "time-dependent DNMT2 inhibition; also recorded: time-dependent displacement of the FTAD FP-tracer"}, {"measurement": "kinact", "setting": "[3]; kinetic FP assay, kobs vs. [I], 120 min at 25 °C", "value": 0.00285, "unit": "s⁻¹"}, {"measurement": "inhibition of TrmD (selectivity panel)", "setting": "[4]", "value": "did not inhibit"}]}
